IC50 data for 23 compounds are collected here from US10800782B2, “Inhibitors of cellular metabolic processes” (Agios Pharmaceuticals, Inc., priority 2016, dated 2020).

The structures appear in SMILES notation.

T1 sequence (P31153 whole entry): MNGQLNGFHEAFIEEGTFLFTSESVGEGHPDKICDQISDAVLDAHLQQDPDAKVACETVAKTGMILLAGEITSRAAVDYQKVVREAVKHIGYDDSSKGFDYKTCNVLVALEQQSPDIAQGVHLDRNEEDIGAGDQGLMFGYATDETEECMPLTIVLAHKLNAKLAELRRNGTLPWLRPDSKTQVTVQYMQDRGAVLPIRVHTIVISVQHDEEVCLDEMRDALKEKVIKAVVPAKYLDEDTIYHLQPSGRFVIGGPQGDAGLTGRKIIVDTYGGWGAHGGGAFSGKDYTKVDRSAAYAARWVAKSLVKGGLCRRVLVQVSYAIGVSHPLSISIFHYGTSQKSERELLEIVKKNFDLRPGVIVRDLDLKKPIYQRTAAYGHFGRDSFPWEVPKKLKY

This test addresses T1, MAT2A (Homo sapiens, UniProt P31153).
T1 construct: His6; made in house; host or cells: SF9 insect cells
Put plainly: MAT2A biochemical assay (colorimetric inorganic phosphate detection, PiColorLock). Conditions: recombinant His6-tagged MAT2A 1 μg/ml; 60 minutes preincubation at 25° C.; L-Met 80 μM, ATP 100 μM; 60 minutes reaction; read at 623 nm; read-out: MAT2A Inhibition Score. The method, then: In the reaction catalyzed by MAT2A enzyme, L-Met and ATP were converted to SAM, inorganic phosphate, and inorganic diphosphate. […] The concentration of malachite green phosphomolybdate produced in the detection reaction is thus directly related to the quantity of product produced by the MAT2A enzyme. Multiple commercial kits exist for this method of phosphate detection and quantification, such as PiColorLock Gold (Innova Biosciences). Typical reaction was performed in 50 μl final volume, containing buffer (Tris, pH 8.0, 50 mM KCl, 15 mM MgCl2, 300 uM EDTA, bovine serum albumin at 0.005% w/v) and 1 μg/ml MAT2A. Compounds were added in 1 μl of DMSO at the desired concentration; a typical dose response curve contained ten points with three-fold dilution between compound concentrations. […] The reaction was allowed to proceed for 60 minutes at room temperature then halted by the addition of 13 μl of PiColor Lock reagent. After a further 5 minutes of incubation at room temperature, […] of PiColor Stabilizer was added and the reactions were further incubated at 25° C. for 25 minutes. […] Recombinant MAT2A protein was expressed in SF9 insect cells and purified by metal chelate affinity chromatography, using methods well known in the art. After expression of His6-tagged MAT2A cells were disrupted by 4 passes through an M-Yl 10 Micro fluidizer (Microfluidics) set to 500 psi, and then centrifuged at 22,000 rcf for 20 min at 4° C. The supernatant was harvested and loaded at 15 cm/h on a Histrap FF 5*1 ml column (GE) which was equilibrated with 50 mM Tris, 500 mM NaCl, pH7.4. Host cell contaminants were removed by washing the column with equilibration buffer followed by equilibration buffer containing 20 mM imidazole and 60 mM imidazole to baseline. MAT2A protein was eluted by the addition of buffer containing 250 mM imidazole, dialized into 50 mM NaCl, 50 mM Tris, pH 7.4, flash frozen in liquid nitrogen, and stored at −80° C. until use.
Turning to `COc1ccc(-c2c(Nc3cccnn3)[nH]c3c(-c4ccccc4)c(-c4ccccc4)nn3c2=O)cc1` [Compound 101, 6-(4-methoxyphenyl)-2,3-diphenyl-5-(pyridazin-3-ylamino)pyrazolo[1,5-a]pyrimidin-7(4H)-one], the IC50 was under 100 nM. Consider `COc1ccc(-c2c(Nc3ccccn3)[nH]c3c(-c4ccccc4)c(-c4ccccc4)nn3c2=O)cc1` [Compound 102, 6-(4-methoxyphenyl)-2,3-diphenyl-5-(pyridin-2-ylamino)pyrazolo[1,5-a]pyrimidin-7(4H)-one], for which the IC50 was under 100 nM. `COc1ccc(-c2c(Nc3cccnc3)[nH]c3c(-c4ccccc4)c(-c4ccccc4)nn3c2=O)cc1` [Compound 103, 6-(4-methoxyphenyl)-2,3-diphenyl-5-(pyridin-3-ylamino)pyrazolo[1,5-a]pyrimidin-7(4H)-one]: the IC50 is under 100 nM. As to `COc1ccc(-c2c(Nc3ccc(C#N)cn3)[nH]c3c(-c4ccccc4)c(-c4ccccc4)nn3c2=O)cc1` [Compound 104, 6-((6-(4-methoxyphenyl)-7-oxo-2,3-diphenyl-4,7-dihydropyrazolo[1,5-a]pyrimidin-5-yl)amino)nicotinonitrile], the IC50 is under 100 nM. Take `COc1ccc(-c2c(Nc3ccc(F)cn3)[nH]c3c(-c4ccccc4)c(-c4ccccc4)nn3c2=O)cc1` [Compound 105, 5-((5-fluoropyridin-2-yl)amino)-6-(4-methoxyphenyl)-2,3-diphenylpyrazolo[1,5-a]pyrimidin-7(4H)-one]: the IC50 was under 100 nM. As for `COc1ccc(-c2c(Nc3ccc(Cl)cn3)[nH]c3c(-c4ccccc4)c(-c4ccccc4)nn3c2=O)cc1` [Compound 106, 5-((5-chloropyridin-2-yl)amino)-6-(4-methoxyphenyl)-2,3-diphenylpyrazolo[1,5-a]pyrimidin-7(4H)-one], the IC50 is under 100 nM.

On to `COc1ccc(-c2c(Nc3ccc([N+](=O)[O-])cn3)[nH]c3c(-c4ccccc4)c(-c4ccccc4)nn3c2=O)cc1` [Compound 107, 6-(4-methoxyphenyl)-5-((5-nitropyridin-2-yl)amino)-2,3-diphenylpyrazolo[1,5-a]pyrimidin-7(4H)-one], for which the IC50 is under 100 nM. With `COc1ccc(-c2c(Nc3ccc(O)cn3)[nH]c3c(-c4ccccc4)c(-c4ccccc4)nn3c2=O)cc1` [Compound 108, 5-(5-hydroxypyridin-2-ylamino)-6-(4-methoxyphenyl)-2,3-diphenylpyrazolo[1,5-a]pyrimidin-7(4H)-one], the IC50 is under 100 nM. On to `COc1ccc(-c2c(Nc3cc(O)ccn3)[nH]c3c(-c4ccccc4)c(-c4ccccc4)nn3c2=O)cc1` [Compound 109, 5-((4-hydroxypyridin-2-yl)amino)-6-(4-methoxyphenyl)-2,3-diphenylpyrazolo[1,5-a]pyrimidin-7(4H)-one], for which the IC50 is under 100 nM. As to `COc1ccc(-c2c(Nc3cccc(F)n3)[nH]c3c(-c4ccccc4)c(-c4ccccc4)nn3c2=O)cc1` [Compound 110, 5-((6-fluoropyridin-2-yl)amino)-6-(4-methoxyphenyl)-2,3-diphenylpyrazolo[1,5-a]pyrimidin-7(4H)-one], the IC50 was under 100 nM. On to `COc1ccc(-c2c(Nc3cccc(C#N)n3)[nH]c3c(-c4ccccc4)c(-c4ccccc4)nn3c2=O)cc1` [Compound 111, 6-((6-(4-methoxyphenyl)-7-oxo-2,3-diphenyl-4,7-dihydropyrazolo[1,5-a]pyrimidin-5-yl)amino)picolinonitrile], for which the IC50 is under 100 nM. Turning to `COc1ccc(-c2c(Nc3cccc(C(N)=O)n3)[nH]c3c(-c4ccccc4)c(-c4ccccc4)nn3c2=O)cc1` [Compound 112, 6-((6-(4-methoxyphenyl)-7-oxo-2,3-diphenyl-4,7-dihydropyrazolo[1,5-a]pyrimidin-5-yl)amino)picolinamide], the IC50 is under 100 nM.

Regarding `COc1ccc(-c2c(Nc3ncccc3O)[nH]c3c(-c4ccccc4)c(-c4ccccc4)nn3c2=O)cc1` [Compound 113, 5-(3-hydroxypyridin-2-ylamino)-6-(4-methoxy-phenyl)-2,3-diphenylpyrazolo[1,5-a]pyrimidin-7(4H)-one], the IC50 is under 100 nM.

Regarding `COc1ccc(-c2c(Nc3cc(C#N)ccn3)[nH]c3c(-c4ccccc4)c(-c4ccccc4)nn3c2=O)cc1` [Compound 114, 2-(6-(4-methoxyphenyl)-7-oxo-2,3-diphenyl-4,7-dihydropyrazolo[1,5-a]pyrimidin-5-ylamino)isonicotinonitrile], the IC50 is under 100 nM.

Consider `COc1ccc(-c2c(Nc3ncc(C#N)cn3)[nH]c3c(-c4ccccc4)c(-c4ccccc4)nn3c2=O)cc1` [Compound 115, 2-(6-(4-methoxyphenyl)-7-oxo-2,3-diphenyl-4,7-dihydropyrazolo[1,5-a]pyrimidin-5-ylamino)pyrimidine-5-carbonitrile], for which the IC50 was under 100 nM. As to `COc1ccc(-c2c(Nc3ccncn3)[nH]c3c(-c4ccccc4)c(-c4ccccc4)nn3c2=O)cc1` [Compound 116, 6-(4-methoxyphenyl)-2,3-diphenyl-5-(pyrimidin-4-ylamino)pyrazolo[1,5-a]pyrimidin-7(4H)-one], the IC50 is under 100 nM. Turning to `COc1ccc(-c2c(Nc3cc(N)ncn3)[nH]c3c(-c4ccccc4)c(-c4ccccc4)nn3c2=O)cc1` [Compound 117, 5-((6-aminopyrimidin-4-yl)amino)-6-(4-methoxyphenyl)-2,3-diphenylpyrazolo[1,5-a]pyrimidin-7(4H)-one], the IC50 is under 100 nM. Regarding `COc1ccc(-c2c(Nc3ccnc(OC)n3)[nH]c3c(-c4ccccc4)c(-c4ccccc4)nn3c2=O)cc1` [Compound 118, 6-(4-methoxyphenyl)-5-((2-methoxypyrimidin-4-yl)amino)-2,3-diphenylpyrazolo[1,5-a]pyrimidin-7(4H)-one], the IC50 is under 100 nM. For `COc1ccc(-c2c(Nc3ccnc(O)n3)[nH]c3c(-c4ccccc4)c(-c4ccccc4)nn3c2=O)cc1` [Compound 119, 5-(2-hydroxypyrimidin-4-ylamino)-6-(4-methoxyphenyl)-2,3-diphenyl-pyrazolo[1,5-a]pyrimidin-7(4H)-one], the IC50 is under 100 nM.

On to `COc1ccc(-c2c(Nc3cncnc3)[nH]c3c(-c4ccccc4)c(-c4ccccc4)nn3c2=O)cc1` [Compound 120, 6-(4-methoxyphenyl)-2,3-diphenyl-5-(pyrimidin-5-ylamino)pyrazolo[1,5-a]pyrimidin-7(4H)-one], for which the IC50 was under 100 nM. Regarding `COc1ccc(-c2c(Nc3ncccn3)[nH]c3c(-c4ccccc4)c(-c4ccccc4)nn3c2=O)cc1` [Compound 121, 6-(4-methoxyphenyl)-2,3-diphenyl-5-(pyrimidin-2-ylamino)pyrazolo[1,5-a]pyrimidin-7(4H)-one], the IC50 was under 100 nM. For the compound `COc1ccc(-c2c(Nc3ncc(Cl)cn3)[nH]c3c(-c4ccccc4)c(-c4ccccc4)nn3c2=O)cc1` [Compound 122, 5-((5-chloropyrimidin-2-yl)amino)-6-(4-methoxyphenyl)-2,3-diphenylpyrazolo[1,5-a]pyrimidin-7(4H)-one], the IC50 was under 100 nM. For `COc1ccc(-c2c(Nc3ccc(N)nn3)[nH]c3c(-c4ccccc4)c(-c4ccccc4)nn3c2=O)cc1` [Compound 123, 5-((6-aminopyridazin-3-yl)amino)-6-(4-methoxyphenyl)-2,3-diphenylpyrazolo[1,5-a]pyrimidin-7(4H)-one], the IC50 is under 100 nM.
